Assay results reported in patent US20080009418A1, “Selective Inhibitors” (Alchemia LTD., priority 2004, published 2008).

Experiments:
Human melanocortin (MC5) = target: T1, Human melanocortin (MC5) (Homo sapiens, UniProt P33032); test: Radioligand binding, human melanocortin MC5 membranes, FlashPlate, [125I]-NDP-αMSH; conditions: compound at 10 μM, [125I]-NDP-αMSH
T1 construct: purchased Perkin Elmer Biosignal
In short: (§1)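 Cloned human receptor membranes were coated onto FlashPlate wells and incubated with radioligand and compound (added from a 0.5 mM DMSO daughter plate) for 1 hour at room temperature in the dark. Scintillation counting gave percent inhibition, with DMSO defining total and reference ligand defining non-specific binding.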

Human opioid (ORL1) = target: T2, Human opioid (ORL1) (Homo sapiens, UniProt P41146); test: Radioligand binding, human opioid ORL1 membranes, FlashPlate, [125I]-Nociceptin; conditions: compound at 10 μM, [125I]-Nociceptin
T2 construct: purchased Perkin Elmer Biosignal
In short: as §1

Human neurokinin (NK1) = target: T3, Human neurokinin (NK1) (Homo sapiens, UniProt P25103); test: Radioligand binding, human neurokinin NK1 membranes, filtration, [125I]-Substance P; conditions: compound at 10 μM; [125I]-Substance P
T3 construct: purchased Perkin Elmer Biosignal
In short: (§2)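 Filtration binding on cloned human receptor membranes (1 Unit/well), [125I]-Substance P for NK1 and [3H]-Diprenorphine for KOP, 1 h at room temperature. Filters PEI-presoaked, washed with cold 50 mM Tris-HCl pH 7.4, counted by scintillation; percent inhibition calculated, reference ligand defining non-specific binding.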

Mouse urotensin (mUR2) = target: T4, Mouse urotensin (mUR2) (Mus musculus, UniProt Q8VIH9); test: Radioligand binding, mouse urotensin mUR2 membranes, FlashPlate, [125I]-Urotensin II; conditions: compound at 10 μM; [125I]-Urotensin II
T4 construct: purchased Perkin Elmer Biosignal
T4 sequence (Q8VIH9 1-385): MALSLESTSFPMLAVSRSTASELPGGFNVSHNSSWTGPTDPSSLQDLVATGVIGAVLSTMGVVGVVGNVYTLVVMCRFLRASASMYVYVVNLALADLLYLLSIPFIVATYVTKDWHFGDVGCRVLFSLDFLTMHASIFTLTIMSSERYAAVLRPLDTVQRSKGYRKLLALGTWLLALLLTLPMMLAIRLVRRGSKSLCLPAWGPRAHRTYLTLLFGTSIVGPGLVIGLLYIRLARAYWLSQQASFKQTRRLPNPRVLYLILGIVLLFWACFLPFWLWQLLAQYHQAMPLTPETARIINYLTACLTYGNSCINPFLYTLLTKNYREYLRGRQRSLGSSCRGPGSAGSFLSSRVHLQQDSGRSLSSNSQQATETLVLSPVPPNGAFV
In short: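 Cloned mouse urotensin (mUR2) receptor membranes from Perkin Elmer Biosignal were immobilized in FlashPlate microplates using a proprietary coating. Each well got 19.5 μl buffer, then 0.5 μl of DMSO, reference ligand, or compound. Adding 5 μl of [125I]-Urotensin II, diluted to 5× final concentration in binding buffer, started binding. Plates were sealed with TopSeal-A and incubated 1 hour at room temperature in the dark. Wells were counted for 30 seconds each on a TopCount after a 60-second delay, and percentage inhibition was calculated.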

Human Melanocortin (MC3) = target: T5, Human Melanocortin (MC3) (Homo sapiens, UniProt P41968); test: Radioligand binding, human melanocortin MC3 membranes, FlashPlate, [125I]-NDP-αMSH; conditions: compound at 10 μM, [125I]-NDP-αMSH
T5 construct: purchased Perkin Elmer Biosignal
In short: as §1

Human κ-Opioid (KOP) = target: T6, Human κ-Opioid (KOP) (Homo sapiens, UniProt P41145); test: Radioligand binding, human κ-opioid (KOP) membranes, filtration, [3H]-Diprenorphine; conditions: compound at 10 μM, [3H]-Diprenorphine
T6 construct: purchased Perkin Elmer Biosignal
In short: as §2

Human δ-opioid (DOP) = target: T7, Human δ-opioid (DOP) (Homo sapiens, UniProt P41143); test: Radioligand binding, human δ-opioid (DOP) membranes, FlashPlate, [3H]-Bremazocine; conditions: compound at 10 μM; [3H]-Bremazocine
T7 construct: purchased Perkin Elmer Biosignal
In short: as §1

[1] = target: T8, Human neuropeptide Y (NPY-Y1) (Homo sapiens, UniProt P25929); test: Radioligand binding, human neuropeptide Y NPY-Y1 membranes, FlashPlate, [125I]-PYY; conditions: compound at 10 μM; [125I]-PYY
T8 construct: purchased Perkin Elmer Biosignal
T8 sequence (P25929 1-384): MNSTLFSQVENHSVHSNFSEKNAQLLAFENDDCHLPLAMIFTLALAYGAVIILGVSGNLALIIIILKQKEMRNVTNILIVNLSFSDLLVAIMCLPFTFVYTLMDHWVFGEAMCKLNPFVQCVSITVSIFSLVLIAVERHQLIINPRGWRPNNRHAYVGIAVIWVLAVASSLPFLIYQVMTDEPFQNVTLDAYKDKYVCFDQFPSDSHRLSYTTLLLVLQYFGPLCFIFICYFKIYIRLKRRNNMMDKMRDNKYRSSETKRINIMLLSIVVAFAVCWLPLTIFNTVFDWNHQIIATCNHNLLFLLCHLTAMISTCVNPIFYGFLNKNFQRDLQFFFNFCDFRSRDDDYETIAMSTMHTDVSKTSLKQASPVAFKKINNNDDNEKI
In short: as §1

Human Melanocortin (MC4) = target: T9, Human Melanocortin (MC4) (Homo sapiens, UniProt P32245); test: Radioligand binding, human melanocortin MC4 membranes, FlashPlate, [125I]-NDP-αMSH; conditions: compound at 10 μM, [125I]-NDP-αMSH
T9 construct: purchased Perkin Elmer Biosignal
In short: as §1

[2] = target: T10, Human melanin-concentrating hormone (MCH1) (Homo sapiens, UniProt Q99705); test: Radioligand binding, human melanin-concentrating hormone MCH1 membranes, FlashPlate, [125I]-S36057; conditions: compound at 10 μM, [125I]-S36057
T10 construct: purchased Perkin Elmer Biosignal
In short: as §1

Human μ-opioid (MOP) = target: T11, Human μ-opioid (MOP) (Homo sapiens, UniProt P35372); test: Radioligand binding, human μ-opioid (MOP) membranes, FlashPlate, [3H]-Naloxone; conditions: compound at 10 μM, [3H]-Naloxone
T11 construct: purchased Perkin Elmer Biosignal
In short: as §1

T9 sequence (P32245 whole entry): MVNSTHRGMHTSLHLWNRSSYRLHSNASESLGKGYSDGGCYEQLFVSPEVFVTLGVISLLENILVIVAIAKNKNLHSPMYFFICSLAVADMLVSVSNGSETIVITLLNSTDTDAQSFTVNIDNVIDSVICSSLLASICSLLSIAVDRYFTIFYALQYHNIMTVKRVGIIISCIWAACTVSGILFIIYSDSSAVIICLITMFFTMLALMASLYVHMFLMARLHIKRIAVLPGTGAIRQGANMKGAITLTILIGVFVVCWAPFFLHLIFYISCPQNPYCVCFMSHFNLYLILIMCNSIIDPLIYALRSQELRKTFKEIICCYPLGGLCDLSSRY
T5 sequence (P41968 whole entry): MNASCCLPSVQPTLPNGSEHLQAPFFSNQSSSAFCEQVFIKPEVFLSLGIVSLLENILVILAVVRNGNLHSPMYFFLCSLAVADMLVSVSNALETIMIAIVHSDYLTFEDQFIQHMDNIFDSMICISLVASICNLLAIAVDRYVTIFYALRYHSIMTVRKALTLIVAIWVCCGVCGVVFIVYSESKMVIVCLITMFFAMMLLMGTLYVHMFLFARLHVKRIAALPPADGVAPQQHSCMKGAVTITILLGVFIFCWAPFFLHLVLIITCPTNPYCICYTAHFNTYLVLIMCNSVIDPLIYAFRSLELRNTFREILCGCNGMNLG
T10 sequence (Q99705 whole entry): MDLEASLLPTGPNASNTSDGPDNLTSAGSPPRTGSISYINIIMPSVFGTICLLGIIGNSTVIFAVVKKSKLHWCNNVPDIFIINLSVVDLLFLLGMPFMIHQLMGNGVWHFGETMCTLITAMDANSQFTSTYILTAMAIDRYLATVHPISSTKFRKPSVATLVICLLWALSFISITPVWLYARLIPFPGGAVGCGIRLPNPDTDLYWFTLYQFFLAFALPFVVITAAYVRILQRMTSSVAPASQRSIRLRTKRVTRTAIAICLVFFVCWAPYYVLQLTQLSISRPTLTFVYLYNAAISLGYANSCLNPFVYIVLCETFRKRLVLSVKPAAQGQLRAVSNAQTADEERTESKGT
T1 sequence (P33032 whole entry): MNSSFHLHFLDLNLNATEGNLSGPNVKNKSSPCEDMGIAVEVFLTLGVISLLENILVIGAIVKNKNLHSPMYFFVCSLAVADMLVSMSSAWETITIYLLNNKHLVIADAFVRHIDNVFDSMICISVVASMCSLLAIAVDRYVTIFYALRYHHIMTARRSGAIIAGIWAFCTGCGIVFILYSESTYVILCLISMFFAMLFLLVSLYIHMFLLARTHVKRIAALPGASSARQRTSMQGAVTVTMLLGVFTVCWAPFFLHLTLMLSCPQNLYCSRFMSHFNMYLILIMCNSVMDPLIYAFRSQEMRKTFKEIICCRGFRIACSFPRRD
T6 sequence (P41145 whole entry): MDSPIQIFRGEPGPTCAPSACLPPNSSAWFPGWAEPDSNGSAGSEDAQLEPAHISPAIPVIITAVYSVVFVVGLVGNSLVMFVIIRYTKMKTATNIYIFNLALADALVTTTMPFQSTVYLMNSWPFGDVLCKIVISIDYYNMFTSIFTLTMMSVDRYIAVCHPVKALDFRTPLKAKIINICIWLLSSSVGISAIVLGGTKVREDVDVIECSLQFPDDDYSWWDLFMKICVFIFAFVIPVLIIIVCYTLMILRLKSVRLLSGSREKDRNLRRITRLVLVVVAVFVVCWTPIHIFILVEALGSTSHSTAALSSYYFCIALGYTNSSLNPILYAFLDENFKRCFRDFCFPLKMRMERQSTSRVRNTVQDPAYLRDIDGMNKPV
T2 sequence (P41146 whole entry): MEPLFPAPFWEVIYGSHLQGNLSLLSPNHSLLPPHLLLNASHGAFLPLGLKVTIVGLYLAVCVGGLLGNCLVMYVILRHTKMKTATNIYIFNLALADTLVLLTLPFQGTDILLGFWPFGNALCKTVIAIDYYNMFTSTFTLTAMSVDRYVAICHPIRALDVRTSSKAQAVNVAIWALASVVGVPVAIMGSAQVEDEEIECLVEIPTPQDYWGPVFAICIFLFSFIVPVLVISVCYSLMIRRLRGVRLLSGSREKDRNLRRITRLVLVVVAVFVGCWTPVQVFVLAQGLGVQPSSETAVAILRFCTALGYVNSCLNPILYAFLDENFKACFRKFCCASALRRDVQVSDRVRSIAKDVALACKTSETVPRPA
T3 sequence (P25103 whole entry): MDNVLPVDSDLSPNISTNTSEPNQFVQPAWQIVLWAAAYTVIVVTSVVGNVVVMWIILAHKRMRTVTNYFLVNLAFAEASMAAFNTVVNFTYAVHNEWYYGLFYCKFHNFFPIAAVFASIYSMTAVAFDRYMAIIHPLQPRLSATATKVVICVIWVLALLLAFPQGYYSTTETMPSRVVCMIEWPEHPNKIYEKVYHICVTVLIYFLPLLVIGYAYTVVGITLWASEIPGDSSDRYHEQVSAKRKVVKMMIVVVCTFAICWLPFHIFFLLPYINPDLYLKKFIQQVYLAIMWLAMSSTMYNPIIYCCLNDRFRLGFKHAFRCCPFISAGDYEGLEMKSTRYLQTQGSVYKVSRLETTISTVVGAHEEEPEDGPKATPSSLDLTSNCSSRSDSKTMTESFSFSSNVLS
T11 sequence (P35372 whole entry): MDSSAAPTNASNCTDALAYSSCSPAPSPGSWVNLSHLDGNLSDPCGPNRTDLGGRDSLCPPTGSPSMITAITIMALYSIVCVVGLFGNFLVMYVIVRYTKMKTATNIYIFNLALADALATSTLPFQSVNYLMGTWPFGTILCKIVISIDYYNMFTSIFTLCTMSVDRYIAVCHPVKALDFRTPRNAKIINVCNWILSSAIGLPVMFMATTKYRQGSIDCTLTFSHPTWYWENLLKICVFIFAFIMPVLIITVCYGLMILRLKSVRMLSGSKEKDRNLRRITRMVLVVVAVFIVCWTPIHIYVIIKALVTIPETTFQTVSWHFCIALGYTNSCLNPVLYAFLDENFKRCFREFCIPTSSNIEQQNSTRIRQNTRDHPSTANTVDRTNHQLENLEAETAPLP
T7 sequence (P41143 whole entry): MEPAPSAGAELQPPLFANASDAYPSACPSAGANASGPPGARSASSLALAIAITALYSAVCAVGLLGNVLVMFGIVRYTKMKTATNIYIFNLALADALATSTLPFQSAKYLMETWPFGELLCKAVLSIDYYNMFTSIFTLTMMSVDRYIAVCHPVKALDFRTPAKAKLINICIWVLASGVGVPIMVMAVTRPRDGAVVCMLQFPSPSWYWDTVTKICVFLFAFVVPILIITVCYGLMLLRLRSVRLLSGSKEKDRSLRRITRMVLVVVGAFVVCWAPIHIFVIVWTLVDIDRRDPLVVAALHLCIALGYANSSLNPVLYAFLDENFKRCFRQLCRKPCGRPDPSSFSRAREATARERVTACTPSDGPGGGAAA

| Structure (SMILES) | A5: inhibition of radioligand binding, human melanocortin (MC5) (Human melanocortin (MC5)) | A10: inhibition of radioligand binding, human opioid (ORL1) (Human opioid (ORL1); 10 µM) | A8: inhibition of radioligand binding, human neurokinin (NK1) (Human neurokinin (NK1)) | A11: inhibition of radioligand binding, mouse urotensin (mUR2) (Mouse urotensin (mUR2)) | A3: inhibition of radioligand binding, human melanocortin (MC3) (Human Melanocortin (MC3); 10 µM) | A2: inhibition of radioligand binding, human κ-opioid (KOP) (Human κ-Opioid (KOP)) | A1: inhibition of radioligand binding, human δ-opioid (DOP) (Human δ-opioid (DOP)) | A9: inhibition of radioligand binding, human neuropeptide Y (NPY-Y1) [1] | A4: inhibition of radioligand binding, human melanocortin (MC4) (Human Melanocortin (MC4); 10 µM) | A6: inhibition of radioligand binding, human melanin-concentrating hormone (MCH1) ([2]; 10 µM) | A7: inhibition of radioligand binding, human μ-opioid (MOP) (Human μ-opioid (MOP)) | A5: inhibition of radioligand binding, human melanocortin (MC5) (Human melanocortin (MC5); 10 µM) | A10: inhibition of radioligand binding, human opioid (ORL1) (Human opioid (ORL1)) | A3: inhibition of radioligand binding, human melanocortin (MC3) (Human Melanocortin (MC3)) | A7: inhibition of radioligand binding, human μ-opioid (MOP) (Human μ-opioid (MOP); 10 µM) | A2: inhibition of radioligand binding, human κ-opioid (KOP) (Human κ-Opioid (KOP); 10 µM) | A4: inhibition of radioligand binding, human melanocortin (MC4) (Human Melanocortin (MC4)) | A6: inhibition of radioligand binding, human melanin-concentrating hormone (MCH1) [2] |
| --- | --- | --- | --- | --- | --- | --- | --- | --- | --- | --- | --- | --- | --- | --- | --- | --- | --- | --- |
| NCCC(=O)NC1C(OCc2ccc(Cl)cc2)OC(COCc2ccc3ccccc3c2)C(O)C1OCc1ccc2ccccc2c1 (single isomer, unassigned) [compound 477] | + (“+” indicates greater than 50% inhibition at 10 μM) | + (“+” indicates greater than 50% inhibition at 10 μM) | + (“+” indicates greater than 50% inhibition at 10 μM) | − (“−” indicates less than 50% inhibition at 10 μM) | − (“−” indicates less than 50% inhibition at 10 μM) | − (“−” indicates less than 50% inhibition at 10 μM) | − (“−” indicates less than 50% inhibition at 10 μM) | − (“−” indicates less than 50% inhibition at 10 μM) | − (“−” indicates less than 50% inhibition at 10 μM) | − (“−” indicates less than 50% inhibition at 10 μM) | − (“−” indicates less than 50% inhibition at 10 μM) | – | – | – | – | – | – | – |
| NCCC(=O)NC1C(OCc2ccc(Cl)cc2)OC(COCc2ccc3ccccc3c2)C(O)C1OCc1ccc2ccccc2c1 (single isomer, unassigned) [compound 478] | + (“+” indicates greater than 50% inhibition at 10 μM) | − (“−” indicates less than 50% inhibition at 10 μM) | + (“+” indicates greater than 50% inhibition at 10 μM) | − (“−” indicates less than 50% inhibition at 10 μM) | + (“+” indicates greater than 50% inhibition at 10 μM) | − (“−” indicates less than 50% inhibition at 10 μM) | − (“−” indicates less than 50% inhibition at 10 μM) | − (“−” indicates less than 50% inhibition at 10 μM) | + (“+” indicates greater than 50% inhibition at 10 μM) | + (“+” indicates greater than 50% inhibition at 10 μM) | − (“−” indicates less than 50% inhibition at 10 μM) | – | – | – | – | – | – | – |
| NCCC(=O)NC1C(OCc2ccc(Cl)cc2)OC(COCc2ccccc2)C(O)C1OCc1ccc2ccccc2c1 (single isomer, unassigned) [compound 479] | – | – | + (“+” indicates greater than 50% inhibition at 10 μM) | − (“−” indicates less than 50% inhibition at 10 μM) | – | − (“−” indicates less than 50% inhibition at 10 μM) | − (“−” indicates less than 50% inhibition at 10 μM) | − (“−” indicates less than 50% inhibition at 10 μM) | − (“−” indicates less than 50% inhibition at 10 μM) | − (“−” indicates less than 50% inhibition at 10 μM) | – | − (“−” indicates less than 50% inhibition at 10 μM) | − (“−” indicates less than 50% inhibition at 10 μM) | − (“−” indicates less than 50% inhibition at 10 μM) | − (“−” indicates less than 50% inhibition at 10 μM) | – | – | – |
| NCCC(=O)NC1C(OCc2ccc(Cl)cc2)OC(COCc2ccccc2)C(O)C1OCc1ccc2ccccc2c1 (single isomer, unassigned) [compound 480] | – | – | + (“+” indicates greater than 50% inhibition at 10 μM) | − (“−” indicates less than 50% inhibition at 10 μM) | – | − (“−” indicates less than 50% inhibition at 10 μM) | − (“−” indicates less than 50% inhibition at 10 μM) | − (“−” indicates less than 50% inhibition at 10 μM) | + (“+” indicates greater than 50% inhibition at 10 μM) | + (“+” indicates greater than 50% inhibition at 10 μM) | – | + (“+” indicates greater than 50% inhibition at 10 μM) | − (“−” indicates less than 50% inhibition at 10 μM) | − (“−” indicates less than 50% inhibition at 10 μM) | + (“+” indicates greater than 50% inhibition at 10 μM) | – | – | – |
| NCCC(=O)NC1C(OCc2ccc(Cl)cc2)OC(COCc2ccc(Cl)cc2)C(O)C1OCc1ccc2ccccc2c1 (single isomer, unassigned) [compound 481] | + (“+” indicates greater than 50% inhibition at 10 μM) | – | + (“+” indicates greater than 50% inhibition at 10 μM) | − (“−” indicates less than 50% inhibition at 10 μM) | – | – | − (“−” indicates less than 50% inhibition at 10 μM) | − (“−” indicates less than 50% inhibition at 10 μM) | – | – | − (“−” indicates less than 50% inhibition at 10 μM) | – | + (“+” indicates greater than 50% inhibition at 10 μM) | + (“+” indicates greater than 50% inhibition at 10 μM) | – | + (“+” indicates greater than 50% inhibition at 10 μM) | + (“+” indicates greater than 50% inhibition at 10 μM) | + (“+” indicates greater than 50% inhibition at 10 μM) |
